Data on seven compounds can be found in patent US12152031B2, “Biodefense agents” (priority 2018, dated 2024).

Common to all, as to assay: microbe, parasite or virus in culture
Type in all cases: cell-based

One assay concerns Bacillus anthracis. The settings on record: for MIC: read-out: MIC range.
In a further assay the test system is Yersinia pestis. Conditions: for MIC: read-out: MIC range.
The next assay concerns Francisella tularensis. Conditions: for MIC: read-out: MIC range.
The next assay relates to Burkholderia mallei. Conditions: for MIC: read-out: MIC range.
In assay [1] the test system is Burkholderia pseudomallei. The settings on record: for MIC50 / MIC90 / MIC: Burkholderia pseudomallei; for MIC: read-out: MIC range.

In brackets after ≈: the same amount, converted by molar mass.

In the case of `C[C@H](N)CCCc1cc(Cl)c(F)c(-c2cc3cn(-c4ccc([C@@H]5CCC[C@@H](CCSC(=N)N)N5)cc4)c(=O)nc3[nH]2)c1` [RX-D4], the MIC50 in the assay with Bacillus anthracis is 0.06 µg/mL (≈ 0.0983 µM); against Yersinia pestis, 0.12 µg/mL (≈ 0.197 µM); against Francisella tularensis, 0.03 µg/mL (≈ 0.0492 µM); in the assay on Burkholderia mallei, 0.12 µg/mL (≈ 0.197 µM); in assay [1] it was 1 µg/mL (≈ 1.64 µM). In addition, the MIC90 amounted to 0.12 µg/mL (≈ 0.197 µM) with Bacillus anthracis; 0.25 µg/mL (≈ 0.41 µM) against Yersinia pestis; 0.06 µg/mL (≈ 0.0983 µM) against Francisella tularensis; 0.12 µg/mL (≈ 0.197 µM) against Burkholderia mallei; 4 µg/mL (≈ 6.56 µM) in assay [1]. Besides, the MIC with Bacillus anthracis was 0.015 to 0.12 µg/mL (≈ 0.0246 to 0.197 µM); with Yersinia pestis, 0.004 to 0.5 µg/mL (≈ 0.00656 to 0.819 µM); in the assay with Francisella tularensis, 0.004 to 0.5 µg/mL (≈ 0.00656 to 0.819 µM); in the assay with Burkholderia mallei, 0.03 to 0.12 µg/mL (≈ 0.0492 to 0.197 µM); in assay [1], 0.25 to 8 µg/mL (≈ 0.41 to 13.1 µM).
`CC(C)(O/N=C(\C(=O)N[C@@H]1C(=O)N2C(C(=O)[O-])=C(C[n+]3ccccc3)CS[C@H]12)c1csc(N)n1)C(=O)O` [Ceftazidime, ceftazidime, reference compound]: in assay [1], the MIC range was ≤0.03 to 32 µg/mL, the MIC50 stood at 1 µg/mL (≈ 1.83 µM) and the MIC90 was found to be 1 µg/mL (≈ 1.83 µM).
Take `C=C[C@H](N)CCCc1cc(Cl)c(F)c(-c2cc3cn(-c4ccc([C@@H]5CCC[C@@H](CCNC(C)=N)N5)c(SC)c4)c(=O)nc3[nH]2)c1` [RX-D7]: the MIC50 is ≤ 0.008 µg/mL in the assay with Bacillus anthracis; 0.25 µg/mL (≈ 0.384 µM) in the assay with Yersinia pestis; 0.12 µg/mL (≈ 0.185 µM) in the assay with Francisella tularensis; 0.25 µg/mL (≈ 0.384 µM) against Burkholderia mallei; 4 µg/mL (≈ 6.15 µM) in assay [1]. For the same compound, the MIC90 against Bacillus anthracis is 0.03 µg/mL (≈ 0.0461 µM); with Yersinia pestis, 0.5 µg/mL (≈ 0.769 µM); against Francisella tularensis it was 0.25 µg/mL (≈ 0.384 µM); in the assay with Burkholderia mallei, 0.25 µg/mL (≈ 0.384 µM); in assay [1] it was 8 µg/mL (≈ 12.3 µM). Moreover, the MIC with Bacillus anthracis lay within 0.008 to 0.06 µg/mL (≈ 0.0123 to 0.0923 µM); in the assay with Yersinia pestis, 0.03 to 1 µg/mL (≈ 0.0461 to 1.54 µM); in the assay on Francisella tularensis it was 0.06 to 0.5 µg/mL (≈ 0.0923 to 0.769 µM); with Burkholderia mallei it was 0.06 to 0.5 µg/mL (≈ 0.0923 to 0.769 µM).
Take `CC(=N)NCC[C@@H]1CCC[C@@H](c2ccc(-n3cc4cc(-c5cc(CCC[C@H](C)N)cc(Cl)c5F)[nH]c4nc3=O)cc2)N1CCCF` [RX-D3]: the MIC50 was 0.12 µg/mL (≈ 0.184 µM) with Bacillus anthracis; 0.12 µg/mL (≈ 0.184 µM) in the assay on Yersinia pestis; 0.12 µg/mL (≈ 0.184 µM) against Francisella tularensis; 0.12 µg/mL (≈ 0.184 µM) in the assay on Burkholderia mallei; 2 µg/mL (≈ 3.07 µM) in assay [1]. The MIC90 stood at 0.12 µg/mL (≈ 0.184 µM) against Bacillus anthracis; 0.25 µg/mL (≈ 0.383 µM) in the assay on Yersinia pestis; 0.25 µg/mL (≈ 0.383 µM) with Francisella tularensis; 0.25 µg/mL (≈ 0.383 µM) in the assay on Burkholderia mallei; 4 µg/mL (≈ 6.13 µM) in assay [1]. Further, the MIC in the assay with Bacillus anthracis was 0.03 to 0.25 µg/mL (≈ 0.046 to 0.383 µM); in the assay with Yersinia pestis it was 0.06 to 0.5 µg/mL (≈ 0.092 to 0.767 µM); in the assay on Francisella tularensis, 0.015 to 2 µg/mL (≈ 0.023 to 3.07 µM); in the assay on Burkholderia mallei it was 0.03 to 0.25 µg/mL (≈ 0.046 to 0.383 µM); in assay [1], 0.5 to 8 µg/mL (≈ 0.767 to 12.3 µM).
On to `C[C@H](N)CCCc1cc(Cl)c(F)c(-c2cc3cn(-c4ccc([C@@H]5CCC[C@@H](CCSC(=N)N)N5)c(F)c4)c(=O)nc3[nH]2)c1` [RX-D11], for which the MIC50 with Bacillus anthracis is 0.12 µg/mL (≈ 0.191 µM); against Yersinia pestis, 0.12 µg/mL (≈ 0.191 µM); in the assay with Francisella tularensis it was 0.06 µg/mL (≈ 0.0955 µM); in the assay with Burkholderia mallei, 0.06 µg/mL (≈ 0.0955 µM); in assay [1], 1 µg/mL (≈ 1.59 µM). Moreover, the MIC90 against Bacillus anthracis amounted to 0.25 µg/mL (≈ 0.398 µM); with Yersinia pestis, 0.25 µg/mL (≈ 0.398 µM); in the assay with Francisella tularensis it was 0.12 µg/mL (≈ 0.191 µM); in the assay with Burkholderia mallei it was 0.12 µg/mL (≈ 0.191 µM); in assay [1], 2 µg/mL (≈ 3.18 µM). Also, the MIC lay within 0.008 to 0.5 µg/mL (≈ 0.0127 to 0.796 µM) in the assay on Bacillus anthracis; 0.004 to 0.25 µg/mL (≈ 0.00637 to 0.398 µM) in the assay on Yersinia pestis; 0.008 to 1 µg/mL (≈ 0.0127 to 1.59 µM) with Francisella tularensis; 0.03 to 0.25 µg/mL (≈ 0.0478 to 0.398 µM) in the assay with Burkholderia mallei; 0.25 to 8 µg/mL (≈ 0.398 to 12.7 µM) in assay [1].
With `CC(=N)NCC[C@@H]1CCC[C@@H](c2ccc(-n3cc4cc(-c5cc(CCC[C@H](C)N)cc(Cl)c5F)[nH]c4nc3=O)cc2C)N1` [RX-D8], the MIC50 against Bacillus anthracis is ≤ 0.008 µg/mL; with Yersinia pestis, 0.25 µg/mL (≈ 0.412 µM); in the assay with Francisella tularensis, 0.03 µg/mL (≈ 0.0495 µM); against Burkholderia mallei, 0.06 µg/mL (≈ 0.099 µM); in assay [1], 8 µg/mL (≈ 13.2 µM). The MIC90 in the assay on Bacillus anthracis is ≤ 0.008 µg/mL; with Yersinia pestis it was 0.5 µg/mL (≈ 0.825 µM); against Francisella tularensis it was 0.06 µg/mL (≈ 0.099 µM); in the assay with Burkholderia mallei, 0.12 µg/mL (≈ 0.198 µM); in assay [1], > 8 µg/mL. The MIC lay within 0.008 to 0.015 µg/mL (≈ 0.0132 to 0.0247 µM) with Bacillus anthracis, 0.06 to 0.5 µg/mL (≈ 0.099 to 0.825 µM) in the assay on Yersinia pestis, 0.004 to 0.12 µg/mL (≈ 0.0066 to 0.198 µM) in the assay with Francisella tularensis and 0.03 to 0.25 µg/mL (≈ 0.0495 to 0.412 µM) in the assay with Burkholderia mallei.
For `CC(=N)NCC[C@@H]1CCC[C@@H](c2ccc(-n3cc4cc(-c5cc(CCC[C@H](C)N)cc(Cl)c5F)[nH]c4nc3=O)cc2)N1CCCO` [RX-D2], the MIC50 against Bacillus anthracis is 0.06 µg/mL (≈ 0.0923 µM); with Yersinia pestis it was 0.25 µg/mL (≈ 0.384 µM); in the assay with Francisella tularensis it was 0.12 µg/mL (≈ 0.185 µM); against Burkholderia mallei it was 0.12 µg/mL (≈ 0.185 µM); in assay [1], > 8 µg/mL. Further, the MIC90 against Bacillus anthracis was 0.12 µg/mL (≈ 0.185 µM); in the assay on Yersinia pestis it was 1 µg/mL (≈ 1.54 µM); in the assay with Francisella tularensis, 0.25 µg/mL (≈ 0.384 µM); against Burkholderia mallei, 0.25 µg/mL (≈ 0.384 µM); in assay [1], > 8 µg/mL. In addition, the MIC in the assay on Bacillus anthracis was 0.03 to 0.12 µg/mL (≈ 0.0461 to 0.185 µM); in the assay with Yersinia pestis it was 0.03 to 1 µg/mL (≈ 0.0461 to 1.54 µM); with Francisella tularensis it was 0.015 to 1 µg/mL (≈ 0.0231 to 1.54 µM); in the assay with Burkholderia mallei, 0.06 to 0.5 µg/mL (≈ 0.0923 to 0.769 µM).
